Reference: US8557820B2, “Crystal modifications of transmission dyes” (BASF SE, priority 2007, dated 2013)

Assay: Thermodynamic / phase stability of the crystal modification at 25° C.
Format: physicochemical
Procedure: This modification is therefore suitable in dispersions comprising micro-fine particles.
Advantageously, dispersions comprising this specific crystal modification are not subjected to phase transformations resulting in a crystal growth.
5 g of the compound obtained in Example A2 (modification (B)) and 5 g of the compound of formula (1) obtained in Example A1 are elutriated in 50 g N-methylpyrrolidone at 25° C.
The suspension is stirred for 3 days at 25° C.

thermodynamic stability of the crystal modification: thermodynamically stable
Structure (SMILES): CCN(CC)c1ccc(C(=O)c2ccccc2C(=O)N2CCN(C(=O)c3ccccc3C(=O)c3ccc(N(CC)CC)cc3O)CC2)c(O)c1 [crystal modification (C)]
